From patent US20180148418A1, “AMIDO-SUBSTITUTED CYCLOHEXANE DERIVATIVES” (Bayer Pharma Aktiengesellschaft, priority 2015, published 2018)
pIC50: −log10 of the molar value.

What was measured:
[1] = system: wildtype Wnt signaling cascade; assay: HEK293 TOP assay (Super TopFlash luciferase reporter, Wnt-3a stimulated); type: cell-based; details: Homo sapiens, HEK293 TOP reporter cells, Wnt3a at EC50, 16 hours
In short: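 Compound series (50 μM down to 15 nM, 3.16-fold) diluted from DMSO 50-fold into CAFTY buffer, pH 7.4, 2 mM Ca^2+, 0.01% BSA, applied to Wnt-3a-stimulated HEK293 TopFlash and FOP reporter lines in parallel. Cells seeded 10000/well 24 h before; luciferase signal measured.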

[2] = system: HEK293 cells cotransfected with the FOP control vector; assay: HEK293 FOP assay (control reporter with non-functional TCF elements); type: cell-based; details: Homo sapiens, 16 hours
In short: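 Compound series from 50 μM down to 15 nM, prediluted in DMSO then 50-fold into CAFTY buffer (pH 7.4, 2 mM Ca2+, 0.01% BSA), tested alongside TOP cells on a Geneticin-selected HEK293 FOP line whose TCF elements are replaced by a random sequence; recombinant human Wnt-3a applied at 2500-5 ng/ml.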

TNKS2 = target: T1, TNKS2 (Homo sapiens, UniProt Q9H2K2); assay: TNKS2 Assay B (auto-parsylation, [3H]-NAD+ SPA); type: biochemical; details: 6 nM TNKS2, auto-parsylation, over night at room temperature
T1 construct: purchased BPS Bioscience, San Diego, USA 80572 (TNKS2 Histone Ribosylation Assay Kit)
T1 sequence (Q9H2K2 1-1166): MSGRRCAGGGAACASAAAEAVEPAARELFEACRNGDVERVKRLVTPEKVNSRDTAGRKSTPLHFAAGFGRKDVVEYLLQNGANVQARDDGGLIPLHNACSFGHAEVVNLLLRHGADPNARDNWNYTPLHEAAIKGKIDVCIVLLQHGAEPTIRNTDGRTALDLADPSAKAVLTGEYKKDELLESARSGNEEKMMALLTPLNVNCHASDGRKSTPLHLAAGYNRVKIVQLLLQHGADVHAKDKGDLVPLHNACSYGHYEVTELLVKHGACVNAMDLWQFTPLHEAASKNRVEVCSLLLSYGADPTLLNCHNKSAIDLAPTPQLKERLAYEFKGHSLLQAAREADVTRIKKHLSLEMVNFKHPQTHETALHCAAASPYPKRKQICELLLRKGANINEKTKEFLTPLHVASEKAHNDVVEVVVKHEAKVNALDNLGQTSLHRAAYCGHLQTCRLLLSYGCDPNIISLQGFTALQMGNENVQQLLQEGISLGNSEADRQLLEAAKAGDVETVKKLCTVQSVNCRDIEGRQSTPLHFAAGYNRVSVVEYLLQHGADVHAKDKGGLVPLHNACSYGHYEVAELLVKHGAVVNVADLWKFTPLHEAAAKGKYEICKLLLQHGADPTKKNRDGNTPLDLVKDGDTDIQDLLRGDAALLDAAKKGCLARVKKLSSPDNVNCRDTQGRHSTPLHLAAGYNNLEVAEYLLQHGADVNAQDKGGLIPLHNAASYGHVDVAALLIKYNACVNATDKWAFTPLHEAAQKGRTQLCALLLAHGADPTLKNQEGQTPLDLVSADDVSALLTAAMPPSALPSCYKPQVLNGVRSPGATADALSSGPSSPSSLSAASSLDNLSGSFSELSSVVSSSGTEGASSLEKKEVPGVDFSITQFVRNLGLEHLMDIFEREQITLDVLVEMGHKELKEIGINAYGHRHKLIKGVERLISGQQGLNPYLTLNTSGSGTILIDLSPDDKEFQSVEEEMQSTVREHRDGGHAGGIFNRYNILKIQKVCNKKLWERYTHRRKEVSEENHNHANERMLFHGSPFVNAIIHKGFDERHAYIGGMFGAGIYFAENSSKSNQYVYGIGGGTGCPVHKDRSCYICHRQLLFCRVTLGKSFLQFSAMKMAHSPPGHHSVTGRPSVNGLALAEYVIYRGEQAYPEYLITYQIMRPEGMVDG

Compound | pIC50 ([1]; HEK293, 16 h) | pIC50 (TNKS2) | pIC50 [2] | pIC50 [1]
CC(C)n1nc(C(=O)N[C@H]2CC[C@@]3(CCN(c4ccc(F)cc4Cl)C3=O)CC2)c2ccc(Br)cc21 [Example 319, 6-bromo-N-[(trans)-2-(2-chloro-4-fluorophenyl)-1-oxo-2-azaspiro[4.5]dec-8-yl]-1-isopropyl-1H-indazole-3-carboxamide] |  | < 5.00 | ≤ 4.30 | ≤ 4.30
O=C(N[C@H]1CC[C@@]2(CCN(c3c(F)cc(F)cc3Cl)C2=O)CC1)c1cnc2cccnn12 [Example 243, N-[(trans)-2-(2-chloro-4,6-difluorophenyl)-1-oxo-2-azaspiro[4.5]dec-8-yl]imidazo[1,2-b]pyridazine-3-carboxamide] | 8.82 | 7.96 | ≤ 4.30 | 
O=C(N[C@H]1CC[C@@]2(CCN(c3ccc(F)cc3Cl)C2=O)CC1)c1n[nH]c2cccc(I)c12 [Example 248, N-[(trans)-2-(2-chloro-4-fluorophenyl)-1-oxo-2-azaspiro[4.5]dec-8-yl]-4-iodo-1H-indazole-3-carboxamide] | 5.29 | < 5.00 | ≤ 4.30 | 
O=C(N[C@H]1CC[C@@]2(CCN(c3ccccc3Cl)C2=O)CC1)c1c[nH]c2cccnc12 [Example 274, N-[(trans)-2-(2-chlorophenyl)-1-oxo-2-azaspiro[4.5]dec-8-yl]-1H-pyrrolo[3,2-b]pyridine-3-carboxamide] | 8.55 | 7.15 | 4.42 | 
O=C(N[C@H]1CC[C@@]2(CCN(c3ccc(F)cc3Cl)C2=O)CC1)c1[nH]cnc1C(=O)N1CC(O)C1 [Example 192, N-[(trans)-2-(2-chloro-4-fluorophenyl)-1-oxo-2-azaspiro[4.5]dec-8-yl]-4-[(3-hydroxyazetidin-1-yl)carbonyl]-1H-imidazole-5-carboxamide] | 9.68 | 8.28 | ≤ 4.30 | 
Cc1cc(N2CC[C@]3(CC[C@@H](NC(=O)c4[nH]cnc4C(N)=O)CC3)C2=O)c(Cl)cc1F [Example 291, N^5-[(trans)-2-(2-chloro-4-fluoro-5-methylphenyl)-1-oxo-2-azaspiro[4.5]dec-8-yl]-1H-imidazole-4,5-dicarboxamide] | 8.31 | 8.07 | ≤ 4.30 | 
Cc1cc(N2CCC[C@]3(CC[C@@H](NC(=O)c4[nH]cnc4C(=O)NCCN4CCC(C)CC4)CC3)C2=O)c(Cl)cc1F [Example 312, N^5-[(trans)-2-(2-chloro-4-fluoro-5-methylphenyl)-1-oxo-2-azaspiro[5.5]undec-9-yl]-N^4-[2-(4-methylpiperidin-1-yl)ethyl]-1H-imidazole-4,5-dicarboxamide] | 7.62 | 8.39 | ≤ 6.30 | 
CNC(=O)c1nc[nH]c1C(=O)N[C@H]1CC[C@@]2(CCCN(c3cc(C)c(F)cc3Cl)C2=O)CC1 [Example 304, N^5-[(trans)-2-(2-chloro-4-fluoro-5-methylphenyl)-1-oxo-2-azaspiro[5.5]undec-9-yl]-N^4-methyl-1H-imidazole-4,5-dicarboxamide] | 7.96 | 7.33 | ≤ 6.30 | 
O=C(N[C@H]1CC[C@@]2(CCN(c3ccc(F)cc3Cl)C2=O)CC1)c1[nH]cnc1C(=O)N1CC(C(F)F)C1 [Example 190, N-[(trans)-2-(2-chloro-4-fluorophenyl)-1-oxo-2-azaspiro[4.5]dec-8-yl]-4-{[3-(difluoromethyl)azetidin-1-yl]carbonyl}-1H-imidazole-5-carboxamide] | 10.22 | 8.55 | 4.92 | 
O=C(N[C@H]1CC[C@@]2(CCN(c3ccc(F)cc3Cl)C2=O)CC1)c1[nH]cnc1C(=O)N1CC(OC(F)F)C1 [Example 193, N-[(trans)-2-(2-chloro-4-fluorophenyl)-1-oxo-2-azaspiro[4.5]dec-8-yl]-4-{[3-(difluoromethoxy)azetidin-1-yl]carbonyl}-1H-imidazole-5-carboxamide] | 9.22 | 8.30 | 4.80 | 
Cn1nc(C(=O)N[C@H]2CC[C@@]3(CCN(c4ccc(F)cc4Cl)C3=O)CC2)c2ccccc21 [Example 247, N-[(trans)-2-(2-chloro-4-fluorophenyl)-1-oxo-2-azaspiro[4.5]dec-8-yl]-1-methyl-1H-indazole-3-carboxamide] | 6.31 | 5.22 | 4.89 | 
O=C(N[C@H]1CC[C@@]2(CCN(c3ccc(F)cc3Cl)C2=O)CC1)c1cnn2c(O)ccnc12 [Example 235, N-[(trans)-2-(2-chloro-4-fluorophenyl)-1-oxo-2-azaspiro[4.5]dec-8-yl]-7-hydroxypyrazolo[1,5-a]pyrimidine-3-carboxamide] | 6.64 | 7.54 | ≤ 6.30 | 
Cc1cc(N2CC[C@]3(CC[C@@H](NC(=O)c4[nH]cnc4C(=O)N4CC(OC(F)F)C4)CC3)C2=O)c(Cl)cc1F [Example 296, N-[(trans)-2-(2-chloro-4-fluoro-5-methylphenyl)-1-oxo-2-azaspiro[4.5]dec-8-yl]-4-{[3-(difluoromethoxy)azetidin-1-yl]carbonyl}-1H-imidazole-5-carboxamide] | 8.89 | 8.08 | 4.46 | 

Now from value to compound, other results behind:

pIC50 ([1]; HEK293, 16 h) | pIC50 (TNKS2) | Compound | pIC50 [2] | pIC50 [1]
8.64 | 7.80 | Cn1cc(C(=O)N[C@H]2CC[C@@]3(CCN(c4ccc(F)cc4Cl)C3=O)CC2)c2ncccc21 [Example 343, N-[(trans)-2-(2-chloro-4-fluorophenyl)-1-oxo-2-azaspiro[4.5]dec-8-yl]-1-methyl-1H-pyrrolo[3,2-b]pyridine-3-carboxamide] | 4.62 | 
7.57 | 8.03 | NC(=O)c1nc[nH]c1C(=O)N[C@H]1CC[C@@]2(CCCN(c3cc(F)c(F)cc3Cl)C2=O)CC1 [Example 320, N^5-[(trans)-2-(2-chloro-4,5-difluorophenyl)-1-oxo-2-azaspiro[5.5]undec-9-yl]-1H-imidazole-4,5-dicarboxamide] | ≤ 4.30 | 
8.92 | 7.70 | O=C(N[C@H]1CC[C@@]2(CCN(c3ccc(F)cc3Cl)C2=O)CC1)c1c[nH]c2nccnc12 [Example 350, N-[(trans)-2-(2-chloro-4-fluorophenyl)-1-oxo-2-azaspiro[4.5]dec-8-yl]-5H-pyrrolo[2,3-b]pyrazine-7-carboxamide] | ≤ 4.30 | 
8.22 | 7.28 | CC(C)NC(=O)c1nc[nH]c1C(=O)N[C@H]1CC[C@@]2(CCCN(c3cc(F)c(F)cc3Cl)C2=O)CC1 [Example 321, N^5-[(trans)-2-(2-chloro-4,5-difluorophenyl)-1-oxo-2-azaspiro[5.5]undec-9-yl]-N^4-(propan-2-yl)-1H-imidazole-4,5-dicarboxamide] | 4.62 | 
8.41 | 7.85 | Cc1cc(C)n2ncc(C(=O)N[C@H]3CC[C@@]4(CCCN(c5cc(F)c(F)cc5Cl)C4=O)CC3)c2n1 [Example 315, N-[(trans)-2-(2-chloro-4,5-difluorophenyl)-1-oxo-2-azaspiro[5.5]undec-9-yl]-5,7-dimethylpyrazolo[1,5-a]pyrimidine-3-carboxamide] | ≤ 6.30 | 
8.14 | 7.57 | COc1ccc(Cl)c(N2CC[C@]3(CC[C@@H](NC(=O)c4cnn5cccnc45)CC3)C2=O)c1 [Example 353, N-[(trans)-2-(2-chloro-5-methoxyphenyl)-1-oxo-2-azaspiro[4.5]dec-8-yl]pyrazolo[1,5-a]pyrimidine-3-carboxamide] | 4.55 | 
